The record followed here is patent publication US20230242947A1, “GENETICALLY ENGINEERED RHODOPSEUDOMONAS PALUSTRIS” (priority 2021, published 2023).

Read-outs that look alike come from different tables or passages of the source.

Data set [1] relates to WT TIE-1 with an empty vector (pRhokS-2). Format: cell-based, Rhodopseudomonas palustris TIE-1. Particulars: for Doubling time: WT with pAB423; for effect on TIE-1 growth of the amount produced in the study: amounts produced by the engineered strains (n-butanol up to 4.98 mg/L; acetone up to about 290 mg/L). The protocol: Toxicity Study. WT TIE-1 with an empty vector (pRhokS-2) was used to test the tolerance of TIE-1 for acetone and n-butanol. To test the tolerance, 0, 0.25, 0.5, 1, or 2% n-butanol (v/v), or 0, 0.1, 0.25, 0.5, 1, or 2% acetone (v/v), was added to FW media with acetate (10 mM). Growth was monitored by recording OD660 overtime.

For data set [2], the system named is phiC31 integrase (Streptomyces phage phiC31?). As to the kind of experiment: cell_activity.

In the case of `CC(C)=O` [acetone], the Doubling time was 6.74 h in data set [1] (acetone 1960 mg/L in media), 5.82 h in data set [1] (acetone 3920 mg/L in media), 5.56 h in data set [1] (acetone 7840 mg/L in media) and 4.88 h in data set [1] (acetone 15680 mg/L in media). Also, the “effect on TIE-1 growth of the amount produced in the study” value in data set [1] is “does not limit TIE-1's growth”.
Take `CCCCO` [n-butanol]: the Doubling time in data set [1] (n-butanol 2025 mg/L in media) was 20.091 h; in data set [1] (n-butanol 4050 mg/L in media) it was “No growth”; in data set [1] (n-butanol 8100 mg/L in media) it was “No growth”; in data set [1] (n-butanol 16200 mg/L in media), “No growth”. For the same compound, the “effect on TIE-1 growth of the amount produced in the study” value in data set [1] is given as “does not limit the growth of TIE-1”. The “lowest inhibitory concentration of n-butanol for TIE-1” value in data set [1] (toxicity assay, FW media with acetate (10 mM)) is recorded as 4050 mg/L.
For “phiC31 attB site (in TIE-1 genome at glmUSX-recG locus)”, the activity in data set [2] (attB x attP integration of mcherry in R. palustris TIE-1, editing efficiency 100% for genome-based system and constitutive plasmid system, about 80% for …) was determined as 100%.
Take “phiC31 attP site (on suicide plasmid pWB081/pWB088)”: in data set [2] (attP donor plasmid partner of attB, same integration assay, about 80% with inducible plasmid system), the activity amounted to 100%.
